Laboratory results: patent US8496945B2, “Nanoparticle delivery systems for membrane-integrating peptides” (priority 2007, dated 2013)
Several values for one entry are separate records, joined by “and”; a condition that tells them apart may be missing. Identical values can stand only once.

How the values were obtained:
C-32 melanoma cells [1] = assay: Cholesterol depletion, Amplex Red Cholesterol Assay; format: cell-based; conditions: 15 min at 37° C.
Protocol: The role of cholesterol in modulating the melittin activity on the cell membrane was assessed by depleting cells of cholesterol before the cell proliferation assay and flow cytometry (as described above). C-32 Melanoma cells were treated with either 0.25 mM or 0.5 mM methyl beta cyclodextrin (Sigma, St. Louis, Mo.) for 15 min at 37° C. to deplete cholesterol. To quantify the amount of cholesterol depleted by methyl beta cyclodextrin, total lipids were extracted from melanoma cells by standard procedure. Briefly, 10^6 C-32 melanoma cells grown in 6-well tissue culture plates were scraped by a rubber policeman and the pellet obtained post-centrifugation was treated with 200 μl chloroform-methanol (2:1). After spinning top speed in a microcentrifuge, the organic phase was collected and vacuum dried. The dried lipids were then dissolved in 20 μl of 2-propanol containing 10% triton-X 100 as assay samples. The total cholesterol content in the cells was determined by using the Amplex® Red Cholesterol Assay kit (Sigma, St. Louis, Mo.). Cholesterol standard was used for calibration as per manufacturer's recommendations.

[2] = tested on: cholesterol-depleted C-32 Melanoma cells; assay: Effect of cholesterol depletion on cell death (MTT assay); format: cell-based; conditions: 0.25 mM and 0.5 mM, no melittin
Protocol: (§1) C-32 melanoma cells were seeded in 96-well plates at a seeding density of 5,000 cells/well. After overnight incubation at 37° C., the cells were treated with free melittin, αvβ3-targeted or nontargeted melittin nanoparticles at various concentrations. At the end of 3 hours of incubation at 37° C., the cells were washed three times with PBS and incubated at 37° C. for a period of 72 hours. Then the medium was aspirated, and the cells rinsed with phosphate buffered saline (PBS) and 20 μl MTT solution (Sigma-Aldrich, St. Louis, Mo., final concentration 5 mg/ml in PBS) was added to each well. Cells were further incubated at 37° C. for 30 min, solubilized in 200 μl DMSO to dissolve the precipitated formazan and the absorbance read on a microplate reader (Biorad, Model 550) at 570 nm. Background absorbencies were subtracted and untreated control cells were set at 100% viability.
The role of cholesterol in modulating the melittin activity on the cell membrane was assessed by depleting cells of cholesterol before the cell proliferation assay and flow cytometry (as described above). […] To quantify the amount of cholesterol depleted by methyl beta cyclodextrin, total lipids were extracted from melanoma cells by standard procedure. […] The total cholesterol content in the cells was determined by using the Amplex® Red Cholesterol Assay kit (Sigma, St. Louis, Mo.). […]

[3] = Surface plasmon resonance kinetics of melittin insertion in lipid monolayers (Biacore L1 chip); format: binding; conditions: melittin 15 to 1,000 nM
Protocol: The kinetics of melittin insertion in lipid monolayers of perfluorocarbon nanoparticles was studied by surface plasmon resonance (SPR). SPR detects change in the reflective index of a surface. Biacore-X biosensor and carboxy methylated dextran chip L1 were obtained from Biacore, Inc (Piscataway, N.J.). All solutions were degassed and filtered through a 0.22 μm membrane as recommended. A uniform lipid monolayer on an L1 chip was created by injecting 35 μl PFOB nanoparticles (3 μl/min). Loosely deposited nanoparticles were removed by first increasing the flow rate to […] for 2 min followed by an injection of NaOH (50 μl, 10 mM) to ensure a stable baseline. Complete coverage was confirmed by injecting the negative control bovine serum albumin (25 μl, […] in PBS). Melittin in various concentrations was then injected at a flow rate of 30 μl/min (30 μl in PBS; 15 nM to 1000 nM) and the response recorded for 60 minutes. At the end of each experiment the chip was regenerated by two consecutive injections of 3-[(3-cholamidopropyl)dimethylammonio]-1-propanesulfonate (CHAPS) (50 μl, 100 μl/min). A series of sensorgrams was generated for the selected melittin concentrations. The data were analyzed globally by simultaneously fitting the peptide sensorgrams obtained at various concentrations using the BIAevaluation™ software (Biacore, Inc, Piscataway, N.J.). […]

red cells = assay: Hemolysis assay; format: cell-based, Human; conditions: 5×10^7 red cells, 37° C., 3 hours; read-out: IC50 (concentration that causes 50% hemolysis)
Protocol: Human umbilical cord blood was obtained from healthy donors after informed consent. The red cells were separated by centrifugation at 200 g for 10 min and resuspended in normal saline. Various concentrations of melittin or melittin-carrying nanoparticles were added to a fixed number of red cells (5×10^7 cells) and incubated at 37° C. for 3 hours. The release of hemoglobin was quantified by measuring the absorbance at 540 nm of the supernatant in a Microplate Reader (Model 550, BioRad) after centrifugation. The absorbance of the supernatant obtained by incubating the red cells in water under identical conditions was set to 100%.

C-32 melanoma cells [4] = assay: Cell proliferation inhibition (MTT) assay; format: cell-based; conditions: 3 hours treatment, then 72 hours
Protocol: The effect of αvβ3-targeted melittin-nanoparticles on C-32 cancer cell proliferation was determined by the 3-[4,5-dimethylthiazol-2-yl]2,5-diphenyltetrazolium bromide (MTT) assay. The assay measures the activity of a mitochondrial enzyme that converts MTT, a tetrazolium salt, into a formazan crystal that absorbs at 570 nm.
as §1

C-32 melanoma cells [5] = assay: Cytochrome c release assay; format: cell-based
Protocol: Cytochrome c is a water-soluble 15 kDa protein residing in the mitochondrial intermembrane space and is released early during apoptosis. To determine if melittin-loaded nanodroplets trigger release of cytochrome c, C-32 melanoma cells were treated with varying concentrations of melittin-nanoparticles for 1 hour at 37° C. following which the mitochondria were isolated by using the Mitochondrial Isolation Kit (Pierce Biotechnology, Rockford, Ill.). The cytochrome c present in the mitochondrial and cytosol fractions thus obtained was assayed by using the cytochrome c ELISA kit (Invitrogen, Carlsbad, Calif.).

C-32 melanoma cells [6] = assay: Lactate dehydrogenase release assay; format: cell-based; conditions: 1 hour at 37° C., 0.1% triton-X 100 = 100%
Protocol: Lactate dehydrogenase (LDH) is a stable enzyme that is rapidly released from the cells upon plasma membrane damage. The lactate dehydrogenase release assay kit was obtained from BioVision (Mountain View, Calif.) and the assay performed according to manufacturers instructions. Briefly, C-32 melanoma cells were either treated with free melittin or melittin-nanoparticles at various concentrations for 1 hour at 37° C. and the amount of lactate dehydrogenase released quantified. Cells treated with 0.1% triton-X 100 were taken as 100% release.

Compound | depletion of cholesterol (C-32 melanoma cells [1]; 0.25 mM) [%] | depletion of cholesterol (C-32 melanoma cells [1]; 0.5 mM) [%] | cell proliferation [2] | association rate constant (ka) [3] | IC50 (red cells) [nM] | IC50 (C-32 melanoma cells [4]) [nM] | release of cytochrome c from the mitochondria (C-32 melanoma cells [5]; 1 hour at 37° C., varying concentrations) | cytochrome c release (C-32 melanoma cells [5]; at the higher concentrations) [%] | LDH release (C-32 melanoma cells [6]; 1 μM) | LDH release (C-32 melanoma cells [6]; 5 μM)
methyl beta cyclodextrin | 7 | 12 | no change in cell proliferation | – | – | – | – | – | – | –
CC[C@H](C)[C@H](NC(=O)CN)C(=O)NCC(=O)N[C@@H](C)C(=O)N[C@H](C(=O)N[C@@H](CC(C)C)C(=O)N[C@@H](CCCCN)C(=O)N[C@H](C(=O)N[C@@H](CC(C)C)C(=O)N[C@H](C(=O)N[C@H](C(=O)NCC(=O)N[C@@H](CC(C)C)C(=O)N1CCC[C@H]1C(=O)N[C@@H](C)C(=O)N[C@@H](CC(C)C)C(=O)N[C@H](C(=O)N[C@@H](CO)C(=O)N[C@@H](Cc1c[nH]c2ccccc12)C(=O)N[C@H](C(=O)N[C@@H](CCCCN)C(=O)N[C@@H](CCCNC(=N)N)C(=O)N[C@@H](CCCCN)C(=O)N[C@@H](CCCNC(=N)N)C(=O)N[C@@H](CCC(N)=O)C(=O)N[C@@H](CCC(N)=O)C(N)=O)[C@@H](C)CC)[C@@H](C)CC)[C@@H](C)O)[C@@H](C)O)C(C)C)C(C)C [free melittin, melittin] | – | – | – | 4.5±0.35×10^6 (Ms)^−1 | 510 ± 120 | 930 ± 80 | dose-dependent release | 55.48±6.1 | 19.17 (±4.2) percent | 68.14 (±7.1) percent and 68.14±4.3%
